Measured values: patent EP4516298A1, “STILBENE COMPOUNDS FOR USE IN THE TREATMENT AND PREVENTION OF INFECTIONS WITH CYTOMEGALOVIRUS (CMV)” (Szekeres, Thomas, priority 2023, dated 2025)

Experiments:
HCMV strain AD169 = assay: Functional plaque reduction assay in HFF infected with human CMV; assay type: cell-based; conditions: for inhibition of CMV replication: plaque reduction assays in HFF treated with decreasing concentrations (Fig. 1-4)
Description: For the plaque reduction assay, HFF were seeded to 100 % confluency and then pre-treated with compound M8 at 8 different concentrations. HFF were subsequently infected with CMV strain AD169, washed and again incubated with two-fold dilutions of the compound. All experiments were done in triplicates (arrow bars show SEM). […] For the plaque reduction assay, HFF were seeded to 100 % confluency. The virus preparation of CMV strain AD169 was pretreated before infection of cells with compound M8 at 8 different concentrations. HFF were subsequently infected with CMV strain AD169, washed and again incubated with two-fold dilutions of the compound. All experiments were done in triplicates (arrow bars show SEM). […] For the plaque reduction assay HFF were seeded to 100 % confluency and subsequently infected with CMV strain AD169. Cells were washed thereafter and incubated with two-fold dilutions of the compound GCV. All experiments were done in triplicates (arrow bars show SEM). […] For the plaque reduction assay HFF were seeded to 100 % confluency and then pre-treated with compound RES at 8 different concentrations. HFF were subsequently infected with CMV strain AD169, washed and again incubated with two-fold dilutions of the compound. All experiments were done in triplicates (arrow bars show SEM).
HCMV strain AD169 was prepared as described previously (Rieder et al., J. Gen. Virol. 98 (2017), 471-485). For virus production, HFF were grown to confluence and subsequently infected with HCMV AD169 at a multiplicity of infection (MOI) of 0.01. The viral inoculum was replaced by culture medium after 90 min. Upon visibility of a total cytopathic effect (CPE) (usually 8-10 days post-infection), the viral supernatant was harvested and stored at - 80°C. After thawing, cell debris was removed by centrifugation at 3,000 g for 20 min. Infectivity of the viral inoculum was then measured using a plaque assay as described elsewhere (Britt, Curr. Protoc. Microbiol. (2010), 14E.3). […] Ganciclovir (Merck Millipore) was added at the indicated concentrations after removal of the inoculum. The cells were then overlaid with growth medium containing 0.5% low-melting point agarose. After solidification of the agarose layer, the plates were incubated for 10 days at 37°C in a CO2 incubator, then fixed with 2% formaldehyde and analysed for number of plaques after staining with 1:5 diluted Mayer's Hemalaun. Plaque numbers were normalized to the mean of DMSO-treated control samples. IC50 values were calculated with Graphpad Prism (dose-response inhibition).

HFF = assay: Toxicity of the compounds to HFF (inhibition of cellular metabolism); assay type: cell-based, human
[1] = Human betaherpesvirus 5, AD169, cells (HFF) pretreated with compound for 90 min, CMV strain AD169, plaques counted after 10 days
[2] = cells (HFF) pretreated with compound, CMV strain AD169
[3] = virus pretreated with compound, CMV strain AD169
[4] = treatment of HFF after CMV infection, CMV strain AD169

SMILES	IC50 (HCMV strain AD169; [1]) [µM]	concentration at which some inhibition of CMV was noted (HCMV strain AD169; [2]) [µM]	inhibition of CMV replication (HCMV strain AD169)	concentration found to be toxic to the HFF (HFF) [µM]	IC50 (HCMV strain AD169; Human betaherpesvirus 5, AD169, virus pretreated with compound for 90 min before infection of HFF, CMV strain AD169) [µM]	concentration of complete inhibition of CMV (HCMV strain AD169; [2]) [µM]	concentration at which inhibition was noticed (HCMV strain AD169; [3]) [µM]	concentration of maximum inhibition (HCMV strain AD169; [3]) [µM]	concentration of complete inhibition (HCMV strain AD169; [4]) [µM]	concentration of initial inhibitory effect (HCMV strain AD169; [4]) [µM]
Oc1ccc(C=Cc2cc(O)cc(O)c2)cc1 [RES, resveratrol, reference compound]	~100	6.25	significant inhibition	> 100						
Oc1cc(/C=C/c2cc(O)c(O)c(O)c2)cc(O)c1O [M8, 3,3',4,4',5,5'-hexahydroxy-trans-stilbene]	~37.5	12.5	significant inhibition	> 100	~3	100	6.25	25		
Nc1nc(O)c2ncn(COC(CO)CO)c2n1 [GCV, Ganciclovir, reference compound]			significant inhibition						≥ 5	0.156
